Key:
Type in all cases: cell-based, human
SCC-1 cells [1] = assay: siRNA knockdown of OGFr, growth of SCC-1 cells
Method: siRNA knockdown of OGFr. […] For transfection, 5×10^4 cells per well were seeded in 6-well plates containing 1 ml of serum-containing media without antibiotics. In each well, 20 nM OGFr-siRNA or control siRNA solutions in serum-free media were added. Cells were incubated for 4 h at 37° C. prior to the addition of OGF. Cultures were incubated an additional 20 h, and then 1 ml fresh complete media either lacking or containing OGF was added. […] Two independent experiments were conducted. The control siRNAs were purchased from Ambion.

p16 [2] = assay: Western blot of p16, other CKIs and Cdk4 in SCC-1 cells; details: for p16 expression: synchronized SCC-1 cells, 3 h, 10^-6 M OGF, 10^-5 M naloxone
Method: Synchronized cells (˜2×10^6) from each treatment were solubilized in 200 μl RIPA buffer (1×PBS, 10 μM IGEPAL, 1 mg/ml SDS, 5 mg/ml deoxycholic acid), containing protease and phosphatase inhibitors (2 μg/ml aprotinin, 3 mg/ml phenylmethyl sulfonyl fluoride (PMSF), 1 mM sodium orthovanidate, 1 μM okadaic acid). Total protein concentrations were measured using the DC protein assay kit (Bio-Rad Laboratories, Hercules, Calif.). Equal amounts of protein (40 μg) were subjected to 10% SDS-PAGE followed by transfer of proteins onto polyvinylidene difluoride (Millipore, Billerica, Mass.) using standard protocols. The following antibodies were purchased from commercial sources: phospho-Rb (Ser795), phospho-Rb (Ser807/811) (Cell Signaling Technology, Beverly, Mass.); phospho-Rb (Thr821) (Biosource, Camarillo, Calif.); Cdk4, cyclin D1, p15, p16, p18, p19 (Santa Cruz Biotechnology, Santa Cruz, Calif.); total Rb, p21, p27 (BD PharMingen, San Diego, Calif.); β-actin (Clone AC-15, Sigma). The following dilutions of primary antibodies were used to detect respective proteins. 1:200 phospho-Rb (Ser795), 1:200 phospho-Rb (Ser807/811); 1:200 phospho-Rb (Thr821); 1:200 Cdk4, 1:200 cyclin D1, 1:100 p16; 1:200 total Rb, 1:200 p21, 1:100 p27. Membranes were probed with secondary anti-rabbit or anti-mouse horseradish peroxidase-conjugated antibodies (GE Healthcare-Amersham Biosciences, Piscataway, N.J.); blots were developed using a chemiluminescence Western blotting detection system (GE Healthcare-Amersham Biosciences).
To determine equal loading of total protein samples, blots were reprobed with monoclonal antibody against β-actin at a dilution of 1:2000. If necessary, membranes were stripped in stripping buffer (62.5 mM Tris-HCl and 100 mM β-mercaptoethanol/2% SDS, pH 6.7) at 50° C. before being re-probed. Means and SE were determined from 3 or more independent experiments.
(§1) To quantify expression levels or kinase activity, the optical density of each band was determined by densitometry and analyzed by QuickOne (Bio-Rad Laboratories). Each value was normalized to β-actin from the same blot. To report the changes due to OGF treatment, the fold increase was calculated by dividing the normalized value from the OGF treated samples by the normalized value of control samples at each time point; thus, increases due to OGF have values greater than one, and decreases due to OGF have values less than one.
(§2) The p16-targeted siRNAs (antisense:5′ […]-3′; sense (SEQ ID NO:5): 5′ […]-3′(SEQ ID NO:6) were obtained as ready-annealed, purified duplex probes (Invitrogen, Carlsbad, Calif.). For transfection, 2×10^5 cells per well were seeded in 6-well plates containing 1 ml of serum-free media without antibiotics. In each well, 20 nM of p16-siRNA or control siRNA solutions in serum-free media were added. Cells were incubated for 4 h at 37° C. prior to the addition of OGF. Cultures were incubated for additional 20 h, and then 1 ml fresh complete media either lacking or containing OGF was added. At the indicated time points, cells were collected for growth curves or Western blotting. Three or more independent experiments were conducted. The control siRNAs were purchased from Ambion.

SCC-1 cells [3] = assay: Growth of SCC-1 cells transfected with p16 siRNA or negative control siRNA; details: SCC-1 cells transfected with p16 siRNA, exposed to OGF for 96 h
Method: as §2

p16 [4] = assay: Western blot of p16 in CAL-27 cells; details: CAL-27 cells transfected with p16 siRNA
Method: (§3) The SCC-1 (UM-SCC-1) cell line was obtained from the University of Michigan Cancer Research Laboratory, and CAL-27 and SCC-4 cells were obtained from the American Type Culture Collection (Manassas, Va.). SCC-1 and CAL-27 cells were cultured in DMEM media, whereas SCC-4 cells were grown in 1:1 Hams F-12 DMEM media. All media was supplemented with 10% fetal bovine serum (HyClone, Logan, Utah), 1.2% sodium bicarbonate, and 5000 units/ml penicillin, 5 μg/ml streptomycin and 10 μg/ml neomycin. OGF was purchased from Sigma-Aldrich (St. Louis, Mo.), dissolved in sterile water, and used at a final concentration of 10^−6 M.
(§4) Synchronized cells (˜2×10^6) from each treatment were solubilized in 200 μl RIPA buffer (1×PBS, 10 μM IGEPAL, 1 mg/ml SDS, 5 mg/ml deoxycholic acid), containing protease and phosphatase inhibitors (2 μg/ml aprotinin, 3 mg/ml phenylmethyl sulfonyl fluoride (PMSF), 1 mM sodium orthovanidate, 1 μM okadaic acid). Total protein concentrations were measured using the DC protein assay kit (Bio-Rad Laboratories, Hercules, Calif.). Equal amounts of protein (40 μg) were subjected to 10% SDS-PAGE followed by transfer of proteins onto polyvinylidene difluoride (Millipore, Billerica, Mass.) using standard protocols. […]

p16 [5] = assay: Western blot of p16 in SCC-4 cells; details: SCC-4 cells transfected with p16 siRNAs, 72 h
Method: as §3, §4

p21 = assay: Western blot of p21, p27 and Cdk2 in BxPC-3 cells; details: synchronized BxPC-3 cells, 9 hours, 10^-6 M OGF, 10^-5 M naloxone
Method: Synchronized cells (2×10^6) from each treatment were solubilized in 200 μl RIPA buffer (1×PBS, 10 μM IGEPAL, 1 mg/ml SDS, 5 mg/ml deoxycholic acid), containing protease and phosphatase inhibitors (2 μg/ml aprotinin, 3 mg/ml phenylmethyl sulfonyl fluoride, 1 mM sodium orthovanidate, 1 μM okadaic acid). Total protein concentrations were measured using the DC protein assay kit (Bio-Rad Laboratories, Hercules, Calif.). Equal amounts of protein (40 μg) were subjected to 10% SDS-PAGE followed by transfer of proteins onto polyvinylidene difluoride (Millipore, Billerica, Mass.) using standard protocols.
The following antibodies were purchased from commercial sources: phospho-Rb (Ser795), phospho-Rb (Ser807/811) (Cell Signaling Technology, Beverly, Mass.); Cdk2, p57 (Santa Cruz Biotechnology, Santa Cruz, Calif.); p21, p27, total Rb (BD PharMingen, San Diego, Calif.); β-actin (Clone AC-15, Sigma-Aldrich).
Membranes were probed with secondary anti-rabbit or anti-mouse horseradish peroxidase-conjugated antibodies (GE Healthcare-Amersham Biosciences, Piscataway, N.J.), and developed using a chemiluminescence Western blotting detection system.
To determine equal loading of total protein samples, blots were re-probed with monoclonal antibody against β-actin at a dilution of 1:2000. If necessary, membranes were processed in stripping buffer (62.5 mM Tris-HCI and 100 mM β-mercaptoethanol/2% SDS, pH 6.7) at 50° C. before being re-probed.
as §1, with “treatment, we calculated” for “treatment,”, “increase” for “increase was calculated”, “one. For all Western blot analyses, 3 or more independent experiments were performed.” for “one.”
The p21-targeted siRNAs were obtained from Santa Cruz Biotechnology, and negative control siRNAs were purchased from Ambion (Ambion, Inc., Austin, Tex.). For transfection, 2×10^5 cells per well were seeded in 6-well plates containing 1 ml of media without antibiotics. For each well, 1 μl of siRNA stock (20 μM) was mixed with 175 μl of serum-free media. Two μl of Oligofectamine reagent (Invitrogen, Carlsbad, Calif.) was added to prewashed cells in each well, making the final concentration for siRNA approximately 20 nM. Cells were incubated for 4 hours at 37° C. prior to the addition of OGF. Eighteen hours later, 1 ml fresh complete media with or without OGF was added to the cultures; media and OGF were replaced daily. At the indicated time points, cells were collected for growth curves or Western blotting.

`O=C1CC[C@@]2(O)[C@H]3Cc4ccc(O)c5c4[C@@]2(CCN3CC2CC2)[C@H]1O5` [NTX] was tested, and the “effect on growth of OGFr-siRNA cultures” value (SCC-1 cells [1]; SCC-1 cells subjected to OGFr-siRNA, 10^-6 M) was “no further effects”, the “increase in number of cells” value (SCC-1 cells [1]; control siRNA-exposed SCC-1 cells, 10^-6 M, 96 h) was 27% and the “increase in number of cells” value (SCC-1 cells [1]; wt SCC-1 cells, 10^-6 M, 96 h) was 24%.

With “OGFr-siRNA: OGFr-targeted siRNA duplex (SEQ ID NO:3 and 4) from Ambion (chain 1 UAGAAACUCAGGUUUGGCG; chain 2 CGCCAAACCUGAGUUUCUA; listed as RNA, chemistry not given here)” the “more cells than wt and control siRNA-treated cultures” value (SCC-1 cells [1]; 20 nM siRNA, 96 h) was “approximately 19%”.

In the case of “p16 siRNA: p16-targeted siRNA duplex (SEQ ID NO:5 and 6) from Invitrogen (chain 1 ACACCGCUUCUGCCUUUUCUU; chain 2 GAAAAGGCAGAAGCGGUGUUU; chemistry not given here)”, the “p16 protein level compared to untransfected cells” value (p16 [2]; SCC-1 cells transfected with p16 siRNA, after 72 h) is reported as “significantly reduced levels”, the “effect of p16 knockdown on OGF growth inhibition” value (SCC-1 cells [3]) is reported as “blocked OGF inhibitory action” and the “p16 levels relative to control cells” value (p16 [4]) is reported as “significantly reduced p16 levels”. For the same compound, the “p16 protein level compared to control cells” value (p16 [5]) was “significantly reduced levels”.

`C=CCN1CC[C@]23c4c5ccc(O)c4O[C@H]2C(=O)CC[C@@]3(O)[C@H]1C5` [naloxone] was tested, and the p16 expression (p16 [2]) was “no effect”, the p16 expression (p16 [2]; listed as NAL) was “no change” and the p21 expression (p21) was “no effect”. For the same compound, the p21 expression (p21; listed as NAL) was “no change”.
